Tests used:
rainbow trout RBCs [1] = assay: In vitro binding of Rhd-labeled peptides to RBCs, flow cytometry (iMFI); format: cell-based, rainbow trout (Oncorhynchus mykiss); conditions: 100 µM Rhd-labeled peptide, 90 min at 14 °C, 10^5 cells/well, mean ± SD n = 3, ranking of peptides
Protocol: In order to evaluate the binding of the peptides for RBCs, we carried out a dose-response assay using a concentration range from 25 to 100 µM. The binding of the Rhodamine (Rhd)-labeled peptides was evaluated by means of flow cytometry and calculated as the integrated median fluorescence intensity (iMFI), which is computed by multiplying the relative frequency (% positive) of cells with the median fluorescence intensity (MFI) of that population. […] Besides, hemagglutination was not observed at the concentrations of peptides used (Supplementary Figure S1). Cell toxicity was not observed neither in vitro nor in vivo at the maximum concentration of peptides used (Supplementary Figure S2).
Figure 1 Peptide binding to rainbow trout RBCs in vitro, evaluated by means of flow cytometry. (a) Integrated median fluorescence intensity (iMFI) (% positive cells × MFI) of rainbow trout RBCs treated with different peptide concentrations, 90 min after incubation, analyzed by flow cytometry. Data represent the mean ± standard deviation (SD), n = 3. […]
Ficoll-purified RBCs (10^5 cells/well) were treated with 25, 50, and 100 µM of 4341, 4342, 4343 Rhd-labeled peptides, and incubated for 90 min at 14 °C. Then, RBCs were washed with 200 µL of RPMI 2% FBS and analyzed by flow cytometry, fluorescent microscopy, and confocal microscopy as described below (Figure 5). […]

rabbit RBCs = conditions: cited from earlier work
Excerpt: (§1) Among the identified peptides in the literature, we selected three peptides based on their reported affinity to bind nucleated RBCs or mammalian RBCs. […] This peptide will be named in this article as 4341. Another selected peptide is a small peptide with lectin-like behavior, called odorranalectin (hereafter referred ...

human RBCs = conditions: cited from earlier work
Excerpt: as §1

rainbow trout RBCs [2] = assay: Confocal microscopy of peptide-RBC binding / presence inside the cell; format: cell-based, rainbow trout (Oncorhynchus mykiss); conditions: 90 min incubation with Rhd-labeled peptides, Hoechst and CellMask Green staining
Protocol: Figure 2 Volume 3D reconstruction of the visualization of the peptides binding to rainbow trout RBCs. Rhd-labeled peptides are represented in red, nuclei were stained with Hoescht and are represented in blue, and cell membrane was stained using CellMask Green and is represented in beige. The images were taken at 63× magnification. Confocal images were processed using the ZEN 3.2 (Blue edition). Volume rendering was performed with IMARIS v9.3. Upper images represent plan view and lower images represent perspective view.
Confocal microscopy was performed to evaluate peptide-RBCs binding in vitro. After 90 min of incubation with Rhd-labeled peptides, RBCs were washed, and nuclei were stained with Hoechst (1 μg/mL) (Sigma-Aldrich) and membrane was stained with CellMask Green (5 μg/mL) (Thermo Fischer Scientific). Images were taken with a Zeiss LSM900 with Airyscan 2 and analyzed with ZEN 3.2 (Blue edition) software (Zeiss, Oberkochen, Germany). Volume rendering was performed using IMARIS Software v9.3 (Bitplane, Zurich, Switzerland).

rainbow trout RBCs [3] = assay: Antiviral gene expression in RBCs by RT-qPCR; format: cell-based, rainbow trout (Oncorhynchus mykiss); conditions: 50 µM peptide, 6 h post-treatment at 14 °C, normalized to ef1α, relative to untreated RBCs
Protocol: Figure 3 Antiviral immunomodulation of the peptides in rainbow trout RBCs. Antiviral gene (ifit5, mx1-3, nkef, and vig1) expression quantified by RT-qPCR in RBCs at 6 h post-treatment (hpt) with 50 µM of each peptide. Gene expression was normalized against ef1α and relativized to control cells (RBCs untreated) (red line). Data represent the mean ± standard deviation (SD), n = 4. Mann–Whitney test was performed (* p < 0.05).
To evaluate the possible antiviral immunomodulatory effects of the peptides, ficoll-purified RBCs (10^6 cells/well) were incubated with 50 µM of 4341, 4342, 4343 Rhd-labeled peptides for 6 h at 14 °C. After that, RBCs were washed, and samples were stored in buffer for RNA extraction and RT-qPCR analysis (Figure 5).
The E.Z.N.A.® Total RNA Kit (Omega Bio-Tek Inc., Norcross, GA, USA) was used for RNA isolation according to the manufacturer’s instructions. Subsequent DNAse treatment was done using TURBO™ DNase (Ambion, Thermo Fisher Scientific, Waltham, MA USA) to eliminate possible residual genomic DNA. RNA was quantified with a NanoDrop Spectrophotometer (Nanodrop Technologies, Wilmington, DE, USA). Then, cDNA synthesis from RNA was performed using M-MLV reverse transcriptase (Invitrogen, Thermo Fisher Scientific) as previously described.
To evaluate the gene expression of RBCs treated with 50 µM of the three Rhd-labeled peptides, RT-qPCR was carried out using the QUANTSTUDIO 3 System (Applied Biosystems, Thermo Fisher Scientific Inc.). Gene expression was analyzed by the 2^–ΔΔCt method. The ef1α gene was used as endogenous control.

[4] = cited from earlier work
Excerpt: In addition, our selected peptides were mainly found inside RBCs, instead of at the surface of the RBCs, as observed by confocal microscopy. […] In this contex ...

rainbow trout RBCs [5] = assay: In vivo binding of peptides to RBCs after i.v. injection, flow cytometry (iMFI); design: species or system rainbow trout (Oncorhynchus mykiss); conditions: i.v. injection of 100 µM peptide in 50 µL, peripheral blood at 3 hpi, mean ± SD n = 3, ranking of peptides
Protocol: Figure 4 Peptide binding to rainbow trout RBCs in vivo, by means of flow cytometry. (a) Integrated median fluorescence intensity (iMFI) (% positive cells × MFI) of RBCs from blood of rainbow trout injected intravenously with the three selected peptides, 3 hpi with 100 µM of each peptide, analyzed by flow cytometry. Data represent the mean ± standard deviation (SD), n = 3. Kruskal–Wallis test with Dunn’s multiple comparison test was performed (p < 0.05). C means control RBCs. (b) Representative images of RBCs from blood of rainbow trout injected intravenously with the three selected peptides, 3 hpi with 100 µM of each peptide. The images were taken with the IN Cell Analyzer 6000 Cell Imaging system at 40× magnification. Peptides are labeled with Rhd (red). […]
Juvenile rainbow trout (7–10 g) were anesthetized with tricaine methanesulfonate, (Sigma-Aldrich, Madrid, Spain) (40 mg/L) and injected intravenously (i.v) with 100 µM of 4341, 4342, 4343 Rhd-labeled peptides in 50 µL of RMPI 2% FBS using insulin syringes. […] Then, blood samples were evaluated by means of flow cytometry and fluorescent microscopy as described below (Figure 6).
RBCs treated in vitro with the Rhd-labeled peptides and blood samples from individuals of rainbow trout injected with the three Rhd-labeled peptides were analyzed by flow cytometry using a FACS Canto II flow cytometer (BD Biosciences, Madrid, Spain). […]

Substance: Rhd-YASPKCFRYPNGVLACT [compound 4342, odorranalectin, Rhd-labeled small peptide with lectin-like behavior, called odorranalectin]
- Binding to RBCs (iMFI = % positive cells × MFI) (rainbow trout RBCs [1]): highest binding
- Binding to rabbit RBCs (rabbit RBCs): bind
- Binding to human RBCs (human RBCs): bind
- Presence of peptide inside the cell (rainbow trout RBCs [2]): higher
- mx1-3 gene expression (rainbow trout RBCs [3]; n = 4): slight and not statistically significant upregulation
- ifit5 gene expression (rainbow trout RBCs [3]; n = 4, Mann–Whitney p < 0.05): statistically significantly upregulated
- nkef gene expression (rainbow trout RBCs [3]; n = 4, not statistically significant): upregulated
- Stability in circulation [4]: high stability in circulation
- Binding to RBCs in vivo (iMFI = % positive cells × MFI) (rainbow trout RBCs [5]): highest iMFI

Source: paper PMC8584011, “Immunomodulatory Lectin-like Peptides for Fish Erythrocytes-Targeting as Potential Antiviral Drug Delivery Platforms” (International Journal of Molecular Sciences, 2021)
